Laboratory results published in patent publication US11834424B2, “Compounds useful as chaperone-mediated autophagy modulators” (ALBERT EINSTEIN COLLEGE OF MEDICINE, priority 2018, dated 2023).
Where “and” joins values, the source holds several entries; their conditions need not be identical. Identical values can stand only once. Like-named read-outs stand apart in the source and are kept apart here.

Legend:
in vitro = details: human, microsomes
Procedure: Microsome stability was determined in human, rat, and mouse, liver microsomes. Compound at 3 μM final concentration along with 0.5 mg/mL microsome protein and 1 mM NADPH was incubated for 0, 5, 15, 30 and 60 min. As a negative control, test compound was incubated with microsomes in the absence of NADPH. Samples were quenched with methanol and centrifuged for 25 min at 2500 rpm to precipitate proteins. Supernatants were analyzed (N=3) by LC-MS/MS. The In peak area ratio (compound peak area/internal standard peak area) was plotted against time and the gradient of the line determined the elimination rate constant [k=(−1)(slope)].
R^2 is the correlation coefficient of the linear regression for the determination of kinetic constant. T1/2 is the half life and CLint (mic) is the intrinsic clearance. CLint(liver)=CLint (mic)*mg microsomal protein/g liver weight*g liver weight/kg body weight. Liver weight/kg body weight is 20 g/kg for human.

[1] = Pharmacokinetics (plasma and brain levels) in ICR (CD-1) mice; type: in vivo; details: i.v. 1 mg/kg, 1 mg/kg
Procedure: ICR (CD-1) male mice were fasted at least three horns and water was available ad libitum before the study. Animals were housed in a controlled environment, target conditions: temperature 18 to 29° C., relative humidity 30 to 70%. Temperature and relative humidity was monitored daily. An electronic time controlled lighting system was used to provide a 12 h light/12 h dark cycle. 3 mice for each indicated time point. ICR (CD-1) mice were administered CA77 at 1 mg/kg i.v. and 30 mg/kg p.o. or CA77.1 at 1 mg/kg i.v. (FIG. 2A) and 10 mg/kg p.o. (FIG. 2B). Three (3) mice were included in each dosage and time group. Mice were sacrificed and plasma and brains were obtained at 0.083, 0.25, 0.50, 1.0, 2.0, 4.0, 8.0, and 24.0 hours after administration and drug concentration determined using LC-MS/MS. Brains were removed, homogenized with a tissue homogenizer in cold 5% w/v BSA in phosphate buffer saline (PBS). A 100 microliter aliquots of brain samples were dispensed in to glass culture tubes and mixed with ethyl acetate (800 μl), vortexed, and centrifuged. The organic layer was transferred to a fresh culture tube, dried under nitrogen, and reconstituted in mobile phase for quantitation. Pharmacokinetic parameters were determined by standard methods using Phoenix WinNonlin 6.3 software.
Tables 3A and 3B provide the concentrations of CA77 in ICR (CD-1) mouse plasma (3A) and mouse brain (3B) following i.v. administration of 1 mg/kg CA77. Table 3C provides the brain/plasma ratio of CA77 following i.v. administration of 1 mg/kg CA77. Shaded cells indicate data not included in statistics due to aberrant value. BLQ=Below Limit of Quantitation.
Tables 5A and 5B provide the concentrations of CA77.1 in ICR (CD-1) mouse plasma (5A) and mouse brain (5B) following i.v. administration of 1 mg/kg CA77.1. Table 5C provides the brain/plasma ratio of CA77.1 following i.v. administration of 1 mg/kg CA77.1. The plasma and brain pharmacokinetic parameters for CA77.1 are provided in Table 6. *—cells contain data not present in the statistics.

CC(=O)Nc1ccc(C2=Nc3ccc(Cl)cc3OC2)cc1 [CA77, reference compound]
half-life at 3 μM (in vitro): 34 min | CLint(mic) (in vitro; 3 μM): 40.8 µL/min/mg | Remaining (T = 60 min) (in vitro; 1 h, 3 μM): 25.9% | CLint scaled at 3 μM (in vitro; CLint(liver)): 36.7 mL/min/kg | Conc. in brain, individual animal ([1]; mouse brain, 0.083 h): 2943 ng/g and *693 ng/g | Conc. in brain, individual animal ([1]; mouse brain, 0.25 h): 3391 ng/g and 5173 ng/g and 2397 ng/g | Conc. in brain, individual animal ([1]; mouse brain, 0.50 h): 2795 ng/g and 2950 ng/g | Conc. in brain, individual animal ([1]; mouse brain, 1.00 h): 2651 ng/g and 2154 ng/g | Conc. in brain, individual animal ([1]; mouse brain, 2.00 h): 411 ng/g and 792 ng/g | Conc. in brain, individual animal ([1]; mouse brain, 4.00 h): 112 ng/g and 124 ng/g | Conc. in brain, individual animal ([1]; mouse brain, 8.00 h): 7.74 ng/g and 27.5 ng/g and 41.4 ng/g | Conc. in brain, individual animal ([1]; mouse brain, 24.0 h): 2.68 ng/g and 4.25 ng/g and 2.07 ng/g | Conc. in plasma, individual animal ([1]; mouse plasma, 0.083 h): 41.4 ng/mL and *14 ng/mL | Conc. in plasma, individual animal ([1]; mouse plasma, 0.25 h): 27.2 ng/mL and 43.9 ng/mL and 19.5 ng/mL | Conc. in plasma, individual animal ([1]; mouse plasma, 0.50 h): 14.6 ng/mL and 21.9 ng/mL | Conc. in plasma, individual animal ([1]; mouse plasma, 1.00 h): 21.5 ng/mL and 15.3 ng/mL | Conc. in plasma, individual animal ([1]; mouse plasma, 2.00 h): 7.54 ng/mL and 1.71 ng/mL and 3.84 ng/mL | Conc. in plasma, individual animal ([1]; mouse plasma, 4.00 h): BLQ and 0.533 ng/mL | Brain/Plasma ratio, individual animal ([1]; mouse, 0.083 h): 71.1 and *48.9 | Brain/Plasma ratio, individual animal ([1]; mouse, 0.25 h): 118 and 123 | Brain/Plasma ratio, individual animal ([1]; mouse, 0.50 h): 192 and 135 | Brain/Plasma ratio, individual animal ([1]; mouse, 1.00 h): 123 and 141 | Brain/Plasma ratio, individual animal ([1]; mouse, 2.00 h): 102 and 240 and 206 | Brain/Plasma ratio, individual animal ([1]; mouse, 4.00 h): 232 | concentration at 0.083 h ([1]; male, ICR (CD-1), mouse, brain, iv, mouse brain, 0.083 h, read-out: Conc. in brain, Mean): 3360 ng/g | concentration at 0.083 h ([1]; male, ICR (CD-1), mouse, brain, iv, mouse brain, 0.083 h, read-out: Conc. in brain, individual animal): 3770 ng/g | concentration at 0.25 h ([1]; male, ICR (CD-1), mouse, brain, iv, mouse brain, 0.25 h, read-out: Conc. in brain, Mean): 3650 ng/g | concentration at 0.5 h ([1]; male, ICR (CD-1), mouse, brain, iv, mouse brain, 0.50 h, read-out: Conc. in brain, Mean): 2650 ng/g | concentration at 0.5 h ([1]; male, ICR (CD-1), mouse, brain, iv, mouse brain, 0.50 h, read-out: Conc. in brain, individual animal): 2200 ng/g | concentration at 1 h ([1]; male, ICR (CD-1), mouse, brain, iv, mouse brain, 1.00 h, read-out: Conc. in brain, Mean): 2460 ng/g | concentration at 1 h ([1]; male, ICR (CD-1), mouse, brain, iv, mouse brain, 1.00 h, read-out: Conc. in brain, individual animal): 2760 ng/g | concentration at 2 h ([1]; male, ICR (CD-1), mouse, brain, iv, mouse brain, 2.00 h, read-out: Conc. in brain, Mean): 659 ng/g | concentration at 2 h ([1]; male, ICR (CD-1), mouse, brain, iv, mouse brain, 2.00 h, read-out: Conc. in brain, individual animal): 773 ng/g | concentration at 4 h ([1]; male, ICR (CD-1), mouse, brain, iv, mouse brain, 4.00 h, read-out: Conc. in brain, Mean): 104 ng/g | concentration at 4 h ([1]; male, ICR (CD-1), mouse, brain, iv, mouse brain, 4.00 h, read-out: Conc. in brain, individual animal): 76 ng/g | concentration at 8 h ([1]; male, ICR (CD-1), mouse, brain, iv, mouse brain, 8.00 h, read-out: Conc. in brain, Mean): 25.6 ng/g | concentration at 24 h ([1]; male, ICR (CD-1), mouse, brain, iv, mouse brain, 24.0 h, read-out: Conc. in brain, Mean): 3 ng/g | Kp at 0.083 h ([1]; male, ICR (CD-1), mouse, brain/plasma, iv, mouse, 0.083 h, read-out: Brain/Plasma ratio, Mean): 71.2 | Kp at 0.083 h ([1]; male, ICR (CD-1), mouse, brain/plasma, iv, mouse, 0.083 h, read-out: Brain/Plasma ratio, individual animal): 71.3 | Kp at 0.25 h ([1]; male, ICR (CD-1), mouse, brain/plasma, iv, mouse, 0.25 h, read-out: Brain/Plasma ratio, Mean): 122 | Kp at 0.25 h ([1]; male, ICR (CD-1), mouse, brain/plasma, iv, mouse, 0.25 h, read-out: Brain/Plasma ratio, individual animal): 125 | Kp at 0.5 h ([1]; male, ICR (CD-1), mouse, brain/plasma, iv, mouse, 0.50 h, read-out: Brain/Plasma ratio, Mean): 151 | Kp at 0.5 h ([1]; male, ICR (CD-1), mouse, brain/plasma, iv, mouse, 0.50 h, read-out: Brain/Plasma ratio, individual animal): 128 | Kp at 1 h ([1]; male, ICR (CD-1), mouse, brain/plasma, iv, mouse, 1.00 h, read-out: Brain/Plasma ratio, Mean): 159 | Kp at 1 h ([1]; male, ICR (CD-1), mouse, brain/plasma, iv, mouse, 1.00 h, read-out: Brain/Plasma ratio, individual animal): 178 | Kp at 2 h ([1]; male, ICR (CD-1), mouse, brain/plasma, iv, mouse, 2.00 h, read-out: Brain/Plasma ratio, Mean): 183 | Kp at 4 h ([1]; male, ICR (CD-1), mouse, brain/plasma, iv, mouse, 4.00 h, read-out: Brain/Plasma ratio, Mean): 210 | Kp at 4 h ([1]; male, ICR (CD-1), mouse, brain/plasma, iv, mouse, 4.00 h, read-out: Brain/Plasma ratio, individual animal): 188 | concentration at 0.083 h ([1]; male, ICR (CD-1), mouse, plasma, iv, mouse plasma, 0.083 h, read-out: Conc. in plasma, Mean): 47.1 ng/mL | concentration at 0.083 h ([1]; male, ICR (CD-1), mouse, plasma, iv, mouse plasma, 0.083 h, read-out: Conc. in plasma, individual animal): 52.9 ng/mL | concentration at 0.25 h ([1]; male, ICR (CD-1), mouse, plasma, iv, mouse plasma, 0.25 h, read-out: Conc. in plasma, Mean): 30.2 ng/mL | concentration at 0.5 h ([1]; male, ICR (CD-1), mouse, plasma, iv, mouse plasma, 0.50 h, read-out: Conc. in plasma, Mean): 17.9 ng/mL | concentration at 0.5 h ([1]; male, ICR (CD-1), mouse, plasma, iv, mouse plasma, 0.50 h, read-out: Conc. in plasma, individual animal): 17.2 ng/mL | concentration at 1 h ([1]; male, ICR (CD-1), mouse, plasma, iv, mouse plasma, 1.00 h, read-out: Conc. in plasma, Mean): 15.4 ng/mL | concentration at 1 h ([1]; male, ICR (CD-1), mouse, plasma, iv, mouse plasma, 1.00 h, read-out: Conc. in plasma, individual animal): 15.5 ng/mL | concentration at 2 h ([1]; male, ICR (CD-1), mouse, plasma, iv, mouse plasma, 2.00 h, read-out: Conc. in plasma, Mean): 4.37 ng/mL | concentration at 4 h ([1]; male, ICR (CD-1), mouse, plasma, iv, mouse plasma, 4.00 h, read-out: Conc. in plasma, Mean): 0.565 ng/mL | concentration at 4 h ([1]; male, ICR (CD-1), mouse, plasma, iv, mouse plasma, 4.00 h, read-out: Conc. in plasma, individual animal): 0.597 ng/mL
